A short description of series [1]: Cytotoxicity against CHO cells. Type of series: toxicity, cell-based, Cricetulus griseus. The following applies: chinese hamster.
The subject of series [2] is Trypanosoma cruzi. Briefly: Antitrypanosomal activity against Trypanosoma cruzi X10/7-Silvio. Type of series: functional, organism-based.
The test system of series [3] is Trypanosoma cruzi. Briefly: Antitrypanosomal activity against Trypanosoma cruzi NINOA. Type of series: functional.
Series [4] concerns Trypanosoma cruzi. The series can be described thus: Antitrypanosomal activity against Trypanosoma cruzi INC-5. In kind it is functional.
Another series has as its system Leishmania braziliensis. The series can be described thus: Antileishmanial activity against Leishmania braziliensis MHOM/BR/1975/M2904 infected in J774.2 cells. Type of series: functional, organism-based. The following applies: MHOM/BR/1975/M2904, J774.2.
In a further series the test system is Leishmania infantum. Briefly: Antileishmanial activity against Leishmania infantum amastigotes MCAN/ES/2001/UCM-10 infected in J774.2 cells. In kind it is functional, organism-based. The following applies: MCAN/ES/2001/UCM-10, J774.2.
Series [5] can be described thus: Selectivity index, ratio of CC50 for […] J774.2 cells to IC50 Leishmania infantum MCAN/ES/2001/UCM-10. In kind it is toxicity. The following applies: J774.2 cells versus Leishmania infantum MCAN/ES/2001/UCM-10; read-out: Ratio CC50/IC50.
Series [6] can be described thus: Cytotoxicity against mouse J774.2 cells. In kind it is toxicity, cell-based.
The nature of series [7]: Selectivity index, ratio of CC50 for […] J774.2 cells to IC50 Leishmania braziliensis MHOM/BR/1975/M2904. Type of series: toxicity. The note with it: read-out: Ratio CC50/IC50.
Series [8] can be described thus: Cytotoxicity against rat L6 cells. In kind it is toxicity, cell-based.
The test system of series [9] is Leishmania donovani. Briefly: Antileishmanial activity against Leishmania donovani axenic amastigotes. In kind it is functional, organism-based.
Series [10] is described as follows: Selectivity index, ratio of CC50 for rat L6 cells to IC50 for Leishmania donovani. Type of series: toxicity. The following applies: L6 cells versus Leishmania donovani, read-out: Ratio CC50/IC50.
Series [11] concerns Leishmania donovani. Briefly: Antileishmanial activity against Leishmania donovani LCR-L 133 LRC infected in J774.2 cells. In kind it is functional, organism-based.
Series [12] in a line: Selectivity index, ratio of CC50 for […] J774.2 cells to IC50 Leishmania donovani LCR-L 133 LRC. Type of series: toxicity. The following applies: J774.2 cells versus Leishmania donovani LCR-L 133 LRC; read-out: Ratio CC50/IC50.
Series [13] deals with Trypanosoma cruzi. The series can be described thus: Antitrypanosomal activity against Trypanosoma cruzi Y. In kind it is functional, organism-based.
In series [14] the test system is Trypanosoma cruzi. Briefly: Antitrypanosomal activity against Trypanosoma cruzi Tulahuen. In kind it is functional, organism-based.
The test system of series [15] is Trypanosoma cruzi. The series can be described thus: Antitrypanosomal activity against Trypanosoma cruzi Brener. In kind it is functional, organism-based.
In series [16] the test system is Trypanosoma cruzi. Briefly: Antitrypanosomal activity against Trypanosoma cruzi epimastigotes. In kind it is functional, organism-based.
Series [17] in a line: Selectivity index, ratio of EC50 for Trypanosoma cruzi epimastigotes to LC50 for african green monkey Vero cells. In kind it is toxicity. The following applies: Vero cells versus Trypanosoma cruzi epimastigotes, read-out: Selectivity Index.
Series [18] concerns Trypanosoma cruzi. Briefly: Antitrypanosomal activity against Trypanosoma cruzi epimastigotes assessed as parasite growth inhibition at 50 uM. In kind it is functional. On the set-up: scale not given: the % may be the effect or the level left.
The nature of series [19]: Cytotoxicity against african green monkey Vero cells. Type of series: toxicity, cell-based. The note with it: chlorocebus sabaeus, read-out: LC50 (the source's name).
Series [20] deals with Trypanosoma cruzi. Briefly: Antitrypanosomal activity against Trypanosoma cruzi LQ. In kind it is functional, organism-based.

This note sets out measurements from ChEMBL document CHEMBL5223105, “Nitro compounds against trypanosomatidae parasites: Heroes or villains?” (Bioorg Med Chem Lett, 2022).

≈ marks a conversion by molar mass, not a printed value.

The compound `O=C(Cn1cccc1[N+](=O)[O-])Nc1cccc(C(F)(F)F)c1` registered a CC50 in series [1] of 156 µM. This compound gave a concentration giving a half-maximal response (EC50) with Trypanosoma cruzi [2] of 3.6 µM.
On to `O=[N+]([O-])c1ccc(/C=N/NS(=O)(=O)c2ccccc2)cc1`, for which the LC50 was found to be 26.3 µM in the series on Trypanosoma cruzi [3] and 4.68 µM with Trypanosoma cruzi [4].
With `COc1nn(CCN)c2ccc([N+](=O)[O-])cc12`, the values for the half-inhibitory concentration (IC50) in the series with Leishmania braziliensis and with Leishmania infantum were 8.1 µM and 3.5 µM, respectively. The selectivity ratio in series [5] was 140; in series [7], 60. In series [6], this compound yielded a CC50 of 489 µM.
`COc1cc(CSc2nnc(-c3ncc([N+](=O)[O-])n3C)s2)cc(OC)c1OC` displayed a CC50 in series [8] of 19.4 µg/mL (≈ 45.9 µM). The compound also returned an IC50 in the series on Leishmania donovani [9] of 0.081 µg/mL (≈ 0.191 µM). Moreover, the selectivity ratio in series [10] came out at 240.
Turning to `O=[N+]([O-])c1ccc2c(c1)c(Oc1ccccc1)nn2CCBr`, the IC50 in the series with Leishmania donovani [11] was 1.6 µM. Moreover, the selectivity ratio in [12] was 120. This compound also yielded a CC50 in series [6] of 588 µM.
As for `O=C(Cn1cccc1[N+](=O)[O-])Nc1ccccc1`, the CC50 in [1] came out at 262 µM. The compound also registered a half-maximal effective concentration (EC50) in the series on Trypanosoma cruzi [2] of 6 µM.
For the compound `O=[N+]([O-])c1ccccc1/C=N/NS(=O)(=O)c1ccccc1`, the figures for the LC50 in the series on Trypanosoma cruzi [3] and in the series with Trypanosoma cruzi [4] were 218 µM and 15.2 µM, respectively.
For the compound `Cn1cnc([N+](=O)[O-])c1-c1nnc(N)[nH]1`, in the series on Trypanosoma cruzi [13], the IC50 came to 38.6 µM.
`Cn1c([N+](=O)[O-])cnc1-c1nnc(NC(=O)C(F)(F)F)s1`: the IC50 with Trypanosoma cruzi [14] amounted to 34.2 µM; in the series with Trypanosoma cruzi [15] it was 31.2 µM.
Regarding `O=[N+]([O-])c1ccc(/C=N/N=c2\[nH]nc(Cl)c3ccccc23)o1`, in the series on Trypanosoma cruzi [16], the EC50 worked out at 6.3 µM. The selectivity ratio in [17] was 8.82. Further, the Activity in the series on Trypanosoma cruzi [18] was found to be 48%. Further, the CC50 in series [19] was 100 µM.
`O=[N+]([O-])c1ccc(/C=N/N=c2\[nH]nc(Cl)c3ccccc23)s1` displayed an EC50 in the series on Trypanosoma cruzi [16] of 7.2 µM. The selectivity ratio in series [17] was 5.14. The Activity with Trypanosoma cruzi [18] is 54%. Moreover, in series [19], the CC50 amounted to 37 µM.
In the series on Leishmania infantum, `CNCCOCCn1nc(OCc2ccccc2)c2cc([N+](=O)[O-])ccc21` displayed an IC50 of 9.1 µM. In [5], the selectivity ratio was determined as 21.6. Moreover, in [6], the CC50 is 197 µM.
The compound `Cn1nc(OCc2ccccc2)c2cc([N+](=O)[O-])ccc21` showed an IC50 in the series on Leishmania infantum of 12.1 µM. Moreover, in [5], the selectivity ratio was 14.8. The CC50 in [6] worked out at 179 µM.
With `CCC(=O)N(/N=C/c1ccccc1[N+](=O)[O-])S(=O)(=O)c1ccccc1`, the LC50 in the series with Trypanosoma cruzi [3] is 68.1 µM; with Trypanosoma cruzi [4], 0.61 µM.
Regarding `CC(=O)Nc1nnc(-c2ncc([N+](=O)[O-])n2C)s1`, the IC50 in the series with Trypanosoma cruzi [20] stood at 7.44 µM; with Trypanosoma cruzi [14], 7.46 µM; in the series with Trypanosoma cruzi [15], 7.44 µM.

One may read the EC50 as the midpoint of the concentration-response curve. By LC50 is commonly meant the concentration lethal to half of the exposed cells or organisms. The IC50 is the concentration that gives 50% inhibition.
